Results as given in patent US20240316213A1, “ANTIBODY-PROTAMINE FUSIONS AS TARGETING COMPOUNDS OF A PROTAMINE-BASED NANOPARTICLE” (Universität Münster, priority 2021, published 2024).

Legend:
HBL-1 DLBCL-cells = experiment: NSG-HBL1 xenograft model; type: in vivo; details: after treatment start, groups of 10 mice
Method: A. Tumor growth and treatment regimen of the NSG-HBL1 xenograft model. After transplantation, tumors were grown to 200 mm^3, before treatment was started twice a week intraperitoneally (i.p.). […] On every treatment day, twice a week, tumor volumes were assessed by caliper measurements. […] C. Survival curves of the treatment versus control groups.

[1] = Cell-free vesicle/nanoparticle formation on chamber slides, microscopy; type: physicochemical
Source text: Based upon these measurements, we hypothesized that the antibody-protamine/free SMCC-protamine/siRNA complexes form outside cells and independently of a cellular context. […]
In detail, the nanostructures resemble a spheroid shape of micrometre size, formed by the three components mAB-SMCC-protamine, unconjugated SMCC-protamine and the Alexa488-labeled siRNA (FIG. 37). The structures are verified by fluorescence microscopy and laser scan confocal microscopy. It became evident that the spheroid structures are completely filled with Alexa488 signals from the siRNA compound.

HBL-1 cells = experiment: Colony formation assay, HBL-1; type: cell-based
Method: Next, we planned functional assays for identifying the effectivity of the antibody-inhibitor-complexes. DLBCL tumor cells were seeded in methylcellulose to form anchorage-free colony growth as a substitute marker for tumorigenicity. Assays were treated with combinations of antibody-inhibitor complexes and compared with appropriate control groups.
This colony-assay is used for quantification of anchorage-independent clonal cell growth and is a standard in vitro surrogate for tumorigenicity in vivo.

siRNA = experiment: Bandshift (electro-mobility shift) assay, siRNA binding; details: preparation containing free SMCC-protamine
Method: We analysed the siRNA binding capacity of these different conjugations by our routine bandshift assays (FIG. 40A-F).
The principle of genetic fusion between cell-determining targeting moiety and the electrostatic siRNA binder protamine such as presented in Song et al. was evaluated by applying this strategy to in a variation to target e.g. leukemic blasts (FIG. 48). The well-known anti-CD33 receptor antibody gemtuzumab was expressed with (FIG. 51) and without a direct genetic fusion to protamine as a siRNA carrier.

[2] = Bandshift assay, ibrutinib-Cy3.5 binding; details: free protamine-SMCC present; listed as Not protamine-SMCC depleted αCD20-mAB-preparations
[3] = Bandshift assay, SM-1/RF binding; details: free SMCC-protamine present; listed as Not SMCC-protamine depleted CD20-mAB-preparations
Source text: Subsequently, we performed the same experiments for the binding between SM-1/RF and two carrier systems, rituximab (CD20)-protamine and the reliable cetuximab (EGFR)-protamine.

Row | Compound | day by which all/last mice had to be sacrificed (HBL-1 DLBCL-cells) | nanoparticle/vesicle formation, cell-free ([1]; listed as uncharged ibrutinib) | colony formation (HBL-1 cells) | siRNA bound per mol of antibody carrier (siRNA) | siRNA bound per mol of antibody carrier (siRNA; listed as Anti-CD20 mAB conjugated to SMCC-protamine) | siRNA bound per mol of antibody carrier (siRNA; listed as rituximab-protamine) | ibrutinib-Cy3.5 complexed per mol of carrier mAB [2] | Microscopic analysis [1] | SM-1/RF complexed per mol of carrier mAB [3]
1 | C=CC(=O)N1CCC[C@@H](n2nc(-c3ccc(Oc4ccccc4)cc3)c3c(N)ncnc32)C1 [ibrutinib, 1-[(3R)-3-[4-amino-3-(4-phenoxyphenyl)pyrazolo[3,4-d]pyrimidin-1-yl]piperidin-1-yl]prop-2-en-1-one] | 20 days | not with uncharged ibrutinib | much lesser degree | – | – | – | – | – | –
2 | CD20-mAB rituximab-protamine/P conjugates: anti-CD20 antibody rituximab conjugated via sulfo-SMCC to protamine, containing free SMCC-protamine | – | – | – | 8 mol | around 16 mol | about 8 mol | > 32 mol | No visible | > 32 mol
3 | rituximab: anti-CD20 antibody | ≤ 16 days | – | only a mild effect on colony growth | – | – | – | – | – | –
